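Step 1: Grow cells in 96-well plates. Step 2: Expose to compound for 48 hours at 5 concentrations. Step 3: Interpolate endpoints linearly; if unreached, use highest concentration. TGI: total growth inhibition.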
Legend:
Test in all cases: NCI anticancer screen, dose series, 48 h
UACC-62 melanoma = tested on: UACC-62 melanoma
CCRF-CEM leukemia = tested on: CCRF-CEM leukemia
OVCAR-4 ovarian = tested on: OVCAR-4 ovarian
UO-31 renal = tested on: UO-31 renal
NCI-H23 lung = tested on: NCI-H23 lung
RXF 393 renal = tested on: RXF 393 renal
SF-539 CNS = tested on: SF-539 CNS
MOLT-4 leukemia = tested on: MOLT-4 leukemia
MALME-3M melanoma = tested on: MALME-3M melanoma
SNB-19 CNS = tested on: SNB-19 CNS
OVCAR-3 ovarian = tested on: OVCAR-3 ovarian
RPMI-8226 leukemia = tested on: RPMI-8226 leukemia
COLO 205 colon = tested on: COLO 205 colon
SR leukemia = tested on: SR leukemia
HT29 colon = tested on: HT29 colon
DLD-1 colon = tested on: DLD-1 colon
DMS 114 small cell lung = tested on: DMS 114 small cell lung
DMS 273 small cell lung = tested on: DMS 273 small cell lung
SF-295 CNS = tested on: SF-295 CNS
NCI-H460 lung = tested on: NCI-H460 lung
SK-MEL-5 melanoma = tested on: SK-MEL-5 melanoma
SK-MEL-2 melanoma = tested on: SK-MEL-2 melanoma
SK-MEL-28 melanoma = tested on: SK-MEL-28 melanoma
U251 CNS = tested on: U251 CNS
786-0 renal = tested on: 786-0 renal
HCT-15 colon = tested on: HCT-15 colon
M14 melanoma = tested on: M14 melanoma
A549 NSCLC = tested on: A549 NSCLC
TK-10 renal = tested on: TK-10 renal
SNB-75 CNS = tested on: SNB-75 CNS
ACHN renal = tested on: ACHN renal
SN12C renal = tested on: SN12C renal
M19-MEL melanoma = tested on: M19-MEL melanoma
OVCAR-8 ovarian = tested on: OVCAR-8 ovarian
HCC-2998 colon = tested on: HCC-2998 colon
EKVX NSCLC = tested on: EKVX NSCLC
XF 498 CNS = tested on: XF 498 CNS
IGROV1 ovarian = tested on: IGROV1 ovarian
KM20L2 colon = tested on: KM20L2 colon
NCI-H226 lung = tested on: NCI-H226 lung
SF-268 CNS = tested on: SF-268 CNS
K-562 leukemia = tested on: K-562 leukemia
HL-60(TB) leukemia = tested on: HL-60(TB) leukemia
LOX IMVI melanoma = tested on: LOX IMVI melanoma
SW-620 colon = tested on: SW-620 colon
UACC-257 melanoma = tested on: UACC-257 melanoma
HCT-116 colon = tested on: HCT-116 colon
RXF-631 renal = tested on: RXF-631 renal
HOP-62 NSCLC = tested on: HOP-62 NSCLC
A498 renal = tested on: A498 renal
LXFL 529 NSCLC = tested on: LXFL 529 NSCLC
NCI-H522 lung = tested on: NCI-H522 lung
HOP-92 NSCLC = tested on: HOP-92 NSCLC
OVCAR-5 ovarian = tested on: OVCAR-5 ovarian
HOP-18 NSCLC = tested on: HOP-18 NSCLC
SK-OV-3 ovarian = tested on: SK-OV-3 ovarian
SNB-78 CNS = tested on: SNB-78 CNS
KM12 colon = tested on: KM12 colon

Question: With `CCOC(=O)C(C)(C)Oc1ccc2c(=O)cc(-c3ccc(Cl)cc3)oc2c1` as the molecule, how does the TGI (UACC-62 melanoma) read?
Answer: > 100 µM

Question: And the TGI (CCRF-CEM leukemia)?
Answer: > 100 µM

Question: And the TGI (OVCAR-4 ovarian)?
Answer: > 100 µM

Question: What about the TGI (UO-31 renal) of the same molecule?
Answer: > 100 µM

Question: What about the TGI (NCI-H23 lung) of the same molecule?
Answer: > 100 µM

Question: What about the TGI (RXF 393 renal) of the same molecule?
Answer: > 100 µM

Question: What about the TGI (SF-539 CNS) of the same molecule?
Answer: > 100 µM

Question: And the TGI (MOLT-4 leukemia)?
Answer: > 100 µM

Question: What about the TGI (MALME-3M melanoma) of the same molecule?
Answer: > 100 µM

Question: And the TGI (SNB-19 CNS)?
Answer: > 100 µM

Question: And the TGI (OVCAR-3 ovarian)?
Answer: > 100 µM

Question: What about the TGI (RPMI-8226 leukemia) of the same molecule?
Answer: > 100 µM

Question: And the TGI (COLO 205 colon)?
Answer: > 100 µM

Question: And the TGI (SR leukemia)?
Answer: > 100 µM

Question: And the TGI (HT29 colon)?
Answer: > 100 µM

Question: And the TGI (DLD-1 colon)?
Answer: > 100 µM

Question: And the TGI (DMS 114 small cell lung)?
Answer: > 100 µM

Question: And the TGI (DMS 273 small cell lung)?
Answer: > 100 µM

Question: What about the TGI (SF-295 CNS) of the same molecule?
Answer: > 100 µM

Question: What about the TGI (NCI-H460 lung) of the same molecule?
Answer: > 100 µM

Question: And the TGI (SK-MEL-5 melanoma)?
Answer: > 100 µM

Question: What about the TGI (SK-MEL-2 melanoma) of the same molecule?
Answer: > 100 µM

Question: What about the TGI (SK-MEL-28 melanoma) of the same molecule?
Answer: > 100 µM

Question: What about the TGI (U251 CNS) of the same molecule?
Answer: > 100 µM

Question: And the TGI (786-0 renal)?
Answer: > 100 µM

Question: What about the TGI (HCT-15 colon) of the same molecule?
Answer: > 100 µM

Question: What about the TGI (M14 melanoma) of the same molecule?
Answer: > 100 µM

Question: What about the TGI (A549 NSCLC) of the same molecule?
Answer: > 100 µM

Question: What about the TGI (TK-10 renal) of the same molecule?
Answer: > 100 µM

Question: And the TGI (SNB-75 CNS)?
Answer: > 100 µM

Question: And the TGI (ACHN renal)?
Answer: > 100 µM

Question: What about the TGI (SN12C renal) of the same molecule?
Answer: > 100 µM

Question: And the TGI (M19-MEL melanoma)?
Answer: > 100 µM

Question: What about the TGI (OVCAR-8 ovarian) of the same molecule?
Answer: > 100 µM

Question: What about the TGI (HCC-2998 colon) of the same molecule?
Answer: > 100 µM

Question: What about the TGI (EKVX NSCLC) of the same molecule?
Answer: > 100 µM

Question: What about the TGI (XF 498 CNS) of the same molecule?
Answer: > 100 µM

Question: What about the TGI (IGROV1 ovarian) of the same molecule?
Answer: > 100 µM

Question: And the TGI (KM20L2 colon)?
Answer: > 100 µM

Question: What about the TGI (NCI-H226 lung) of the same molecule?
Answer: > 100 µM

Question: What about the TGI (SF-268 CNS) of the same molecule?
Answer: > 100 µM

Question: And the TGI (K-562 leukemia)?
Answer: > 100 µM

Question: What about the TGI (HL-60(TB) leukemia) of the same molecule?
Answer: > 100 µM

Question: And the TGI (LOX IMVI melanoma)?
Answer: > 100 µM

Question: What about the TGI (SW-620 colon) of the same molecule?
Answer: > 100 µM

Question: What about the TGI (UACC-257 melanoma) of the same molecule?
Answer: > 100 µM

Question: What about the TGI (HCT-116 colon) of the same molecule?
Answer: > 100 µM

Question: What about the TGI (RXF-631 renal) of the same molecule?
Answer: > 100 µM

Question: What about the TGI (HOP-62 NSCLC) of the same molecule?
Answer: > 100 µM

Question: And the TGI (A498 renal)?
Answer: > 100 µM

Question: And the TGI (LXFL 529 NSCLC)?
Answer: > 100 µM

Question: How did the TGI (UACC-62 melanoma) turn out when `O=C(C(O)c1cn(Cc2ccccc2)c2ccccc12)N1CCCCC1` (stereo unspecified) was run?
Answer: > 100 µM

Question: What about the TGI (CCRF-CEM leukemia) of the same molecule?
Answer: > 100 µM

Question: What about the TGI (UO-31 renal) of the same molecule?
Answer: > 100 µM

Question: And the TGI (NCI-H23 lung)?
Answer: > 10 µM

Question: What about the TGI (RXF 393 renal) of the same molecule?
Answer: > 10 µM

Question: And the TGI (NCI-H522 lung)?
Answer: > 100 µM

Question: What about the TGI (SF-539 CNS) of the same molecule?
Answer: > 100 µM

Question: What about the TGI (MOLT-4 leukemia) of the same molecule?
Answer: > 100 µM

Question: What about the TGI (HOP-92 NSCLC) of the same molecule?
Answer: > 100 µM

Question: What about the TGI (MALME-3M melanoma) of the same molecule?
Answer: > 100 µM

Question: And the TGI (SNB-19 CNS)?
Answer: > 100 µM

Question: And the TGI (OVCAR-3 ovarian)?
Answer: > 100 µM

Question: What about the TGI (RPMI-8226 leukemia) of the same molecule?
Answer: > 100 µM

Question: What about the TGI (COLO 205 colon) of the same molecule?
Answer: > 100 µM

Question: And the TGI (SR leukemia)?
Answer: > 100 µM

Question: And the TGI (HT29 colon)?
Answer: > 100 µM

Question: What about the TGI (DLD-1 colon) of the same molecule?
Answer: > 100 µM

Question: And the TGI (DMS 114 small cell lung)?
Answer: > 100 µM

Question: What about the TGI (DMS 273 small cell lung) of the same molecule?
Answer: > 100 µM

Question: And the TGI (SF-295 CNS)?
Answer: > 100 µM

Question: And the TGI (SK-MEL-5 melanoma)?
Answer: > 100 µM

Question: What about the TGI (SK-MEL-2 melanoma) of the same molecule?
Answer: > 100 µM

Question: What about the TGI (SK-MEL-28 melanoma) of the same molecule?
Answer: > 10 µM

Question: And the TGI (OVCAR-5 ovarian)?
Answer: > 100 µM

Question: What about the TGI (U251 CNS) of the same molecule?
Answer: > 10 µM

Question: What about the TGI (786-0 renal) of the same molecule?
Answer: > 100 µM

Question: And the TGI (HOP-18 NSCLC)?
Answer: 90 µM

Question: What about the TGI (HCT-15 colon) of the same molecule?
Answer: > 100 µM

Question: What about the TGI (M14 melanoma) of the same molecule?
Answer: > 100 µM

Question: And the TGI (A549 NSCLC)?
Answer: > 100 µM

Question: What about the TGI (TK-10 renal) of the same molecule?
Answer: > 10 µM

Question: And the TGI (SNB-75 CNS)?
Answer: > 100 µM

Question: And the TGI (ACHN renal)?
Answer: > 100 µM

Question: What about the TGI (SN12C renal) of the same molecule?
Answer: > 100 µM

Question: What about the TGI (M19-MEL melanoma) of the same molecule?
Answer: > 100 µM

Question: What about the TGI (OVCAR-8 ovarian) of the same molecule?
Answer: > 100 µM

Question: What about the TGI (HCC-2998 colon) of the same molecule?
Answer: > 100 µM

Question: What about the TGI (EKVX NSCLC) of the same molecule?
Answer: > 100 µM

Question: And the TGI (XF 498 CNS)?
Answer: > 100 µM

Question: What about the TGI (IGROV1 ovarian) of the same molecule?
Answer: > 100 µM

Question: And the TGI (KM20L2 colon)?
Answer: > 100 µM

Question: And the TGI (NCI-H226 lung)?
Answer: > 100 µM

Question: What about the TGI (SF-268 CNS) of the same molecule?
Answer: > 100 µM

Question: And the TGI (K-562 leukemia)?
Answer: > 100 µM

Question: What about the TGI (SK-OV-3 ovarian) of the same molecule?
Answer: > 100 µM

Question: What about the TGI (HL-60(TB) leukemia) of the same molecule?
Answer: > 100 µM

Question: And the TGI (LOX IMVI melanoma)?
Answer: > 100 µM

Question: What about the TGI (SW-620 colon) of the same molecule?
Answer: > 100 µM

Question: What about the TGI (SNB-78 CNS) of the same molecule?
Answer: > 10 µM

Question: And the TGI (UACC-257 melanoma)?
Answer: > 100 µM

Question: And the TGI (HCT-116 colon)?
Answer: > 100 µM

Question: And the TGI (KM12 colon)?
Answer: > 100 µM

Question: And the TGI (HOP-62 NSCLC)?
Answer: > 100 µM

Question: And the TGI (A498 renal)?
Answer: > 100 µM

Question: What about the TGI (LXFL 529 NSCLC) of the same molecule?
Answer: > 100 µM

Reference: PubChem BioAssay (NCI)
